Data taken from ChEMBL document CHEMBL1152879, “Discovery of GlyT1 inhibitors with improved pharmacokinetic properties” (Bioorg Med Chem Lett, 2009).

Tested on: not listed separately
Assay: Half life in dog at 0.25 mg/kg, iv by cassette dosing
Assay type: ADME, organism-based, Canis lupus familiaris
Set-up: dose 0.25 mg/kg, route intravenous
Details: in vivo

Compound	half-life
CCCS(=O)(=O)N1CCC(CNC(=O)c2ccc(Cl)cc2Cl)(C2CCCCC2OC(C)=O)CC1 (configuration not stated)	< 2 h
CCCS(=O)(=O)N1CCC(CNC(=O)c2ccc(Cl)cc2Cl)(CC2CC2)CC1	< 2 h
CN(C)S(=O)(=O)N1CCC(CNC(=O)c2ccc(Cl)cc2Cl)(c2ccccn2)CC1	1.9 h
CCS(=O)(=O)N1CCC(CNC(=O)c2ccc(Cl)cc2Cl)(c2ccccn2)CC1	8 h
CCCS(=O)(=O)N1CCC(CNC(=O)c2ccc(Cl)cc2Cl)(c2ccccn2)CC1	2.3 h

Tested on: not listed separately
Assay: Clearance in dog at 0.25 mg/kg, iv by cassette dosing
Assay type: ADME, organism-based, Canis lupus familiaris
Set-up: dose 0.25 mg/kg, route intravenous
Details: in vivo

Compound	clearance
CCCS(=O)(=O)N1CCC(CNC(=O)c2ccc(Cl)cc2Cl)(C2CCCCC2OC(C)=O)CC1 (configuration not stated)	> 15 mL/min/kg
CCCS(=O)(=O)N1CCC(CNC(=O)c2ccc(Cl)cc2Cl)(CC2CC2)CC1	> 15 mL/min/kg
CN(C)S(=O)(=O)N1CCC(CNC(=O)c2ccc(Cl)cc2Cl)(c2ccccn2)CC1	11.8 mL/min/kg
CCS(=O)(=O)N1CCC(CNC(=O)c2ccc(Cl)cc2Cl)(c2ccccn2)CC1	1.4 mL/min/kg
CCCS(=O)(=O)N1CCC(CNC(=O)c2ccc(Cl)cc2Cl)(c2ccccn2)CC1	15 mL/min/kg

Target: T1, Sodium- and chloride-dependent taurine transporter (Homo sapiens, UniProt P31641)
T1 sequence (P31641 whole entry): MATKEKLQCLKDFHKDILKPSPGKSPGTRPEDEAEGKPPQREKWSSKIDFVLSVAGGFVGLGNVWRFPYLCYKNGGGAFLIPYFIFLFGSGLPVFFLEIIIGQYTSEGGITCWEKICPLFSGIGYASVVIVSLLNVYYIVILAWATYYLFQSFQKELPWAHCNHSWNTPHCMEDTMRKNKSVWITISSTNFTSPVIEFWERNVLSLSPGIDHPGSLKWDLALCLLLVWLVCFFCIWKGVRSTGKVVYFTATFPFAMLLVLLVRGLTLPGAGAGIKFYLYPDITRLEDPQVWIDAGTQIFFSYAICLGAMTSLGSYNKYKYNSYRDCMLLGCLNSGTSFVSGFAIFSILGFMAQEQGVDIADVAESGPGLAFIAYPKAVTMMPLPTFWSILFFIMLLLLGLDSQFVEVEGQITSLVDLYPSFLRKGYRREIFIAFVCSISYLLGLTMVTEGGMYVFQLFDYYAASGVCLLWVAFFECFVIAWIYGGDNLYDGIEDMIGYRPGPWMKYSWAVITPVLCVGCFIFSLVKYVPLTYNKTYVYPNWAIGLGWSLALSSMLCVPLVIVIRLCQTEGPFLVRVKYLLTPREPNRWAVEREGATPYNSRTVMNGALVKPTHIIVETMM
Assay: Inhibition of taurine transporter
Details: not given

Compound	IC50
CC(F)CS(=O)(=O)N1CCC(CNC(=O)c2ccc(Cl)cc2Cl)(c2ccccn2)CC1 (configuration not stated)	> 30000 nM
CCCS(=O)(=O)N1CCC(CNC(=O)c2ccc(Cl)cc2Cl)(CC2CC2)CC1	> 30000 nM
CCS(=O)(=O)N1CCC(CNC(=O)c2ccc(Cl)cc2Cl)(c2ccccn2)CC1	> 30000 nM
CCCS(=O)(=O)N1CCC(CNC(=O)c2ccc(Cl)cc2Cl)(c2ccccn2)CC1	> 30000 nM

Target: T2, Sodium- and chloride-dependent glycine transporter 1 (Homo sapiens, UniProt P48067)
T2 sequence (P48067 whole entry): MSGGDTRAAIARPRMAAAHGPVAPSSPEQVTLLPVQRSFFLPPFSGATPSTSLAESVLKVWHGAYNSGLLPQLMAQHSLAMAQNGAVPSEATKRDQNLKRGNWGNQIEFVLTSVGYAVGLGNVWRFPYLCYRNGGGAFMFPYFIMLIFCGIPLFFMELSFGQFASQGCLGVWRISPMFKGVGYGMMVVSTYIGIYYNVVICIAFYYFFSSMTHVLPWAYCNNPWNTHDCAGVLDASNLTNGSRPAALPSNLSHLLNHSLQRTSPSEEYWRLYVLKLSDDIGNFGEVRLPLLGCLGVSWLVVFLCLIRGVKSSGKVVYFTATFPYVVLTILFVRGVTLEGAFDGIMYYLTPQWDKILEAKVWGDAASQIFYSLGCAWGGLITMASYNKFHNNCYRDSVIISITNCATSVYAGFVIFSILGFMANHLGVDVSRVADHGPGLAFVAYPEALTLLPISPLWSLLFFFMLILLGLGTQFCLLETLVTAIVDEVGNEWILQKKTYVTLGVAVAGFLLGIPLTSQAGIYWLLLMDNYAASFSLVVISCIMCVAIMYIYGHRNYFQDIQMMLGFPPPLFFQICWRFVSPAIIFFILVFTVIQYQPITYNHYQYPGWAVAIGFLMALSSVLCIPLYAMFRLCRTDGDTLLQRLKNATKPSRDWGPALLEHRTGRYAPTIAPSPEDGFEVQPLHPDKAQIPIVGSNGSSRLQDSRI
Assay: Inhibition of Glyt1
Details: not given

Compound	IC50
CCCCS(=O)(=O)N1CCC(CNC(=O)c2ccc(Cl)cc2Cl)(c2ccccn2)CC1	120 nM
O=C(NCC1(c2ccccn2)CCN(S(=O)(=O)C(F)(F)F)CC1)c1ccc(Cl)cc1Cl	> 5000 nM
CC(C)S(=O)(=O)N1CCC(CNC(=O)c2ccc(Cl)cc2Cl)(c2ccccn2)CC1	220 nM
CC(O)CS(=O)(=O)N1CCC(CNC(=O)c2ccc(Cl)cc2Cl)(c2ccccn2)CC1 (configuration not stated)	86 nM

Results, then the molecule that gave them:

IC50	Compound
9.7 nM	CC(F)CS(=O)(=O)N1CCC(CNC(=O)c2ccc(Cl)cc2Cl)(c2ccccn2)CC1 (configuration not stated)
17.7 nM	CCCS(=O)(=O)N1CCC(CNC(=O)c2ccc(Cl)cc2Cl)(C2CCCCC2OC(C)=O)CC1 (configuration not stated)
30 nM	CCCS(=O)(=O)N1CCC(CNC(=O)c2ccc(Cl)cc2Cl)(CC2CC2)CC1
77 nM	CN(C)S(=O)(=O)N1CCC(CNC(=O)c2ccc(Cl)cc2Cl)(c2ccccn2)CC1
57 nM	CCS(=O)(=O)N1CCC(CNC(=O)c2ccc(Cl)cc2Cl)(c2ccccn2)CC1

Target: T3, Sodium- and chloride-dependent glycine transporter 2 (Homo sapiens, UniProt Q9Y345)
T3 sequence (Q9Y345 whole entry): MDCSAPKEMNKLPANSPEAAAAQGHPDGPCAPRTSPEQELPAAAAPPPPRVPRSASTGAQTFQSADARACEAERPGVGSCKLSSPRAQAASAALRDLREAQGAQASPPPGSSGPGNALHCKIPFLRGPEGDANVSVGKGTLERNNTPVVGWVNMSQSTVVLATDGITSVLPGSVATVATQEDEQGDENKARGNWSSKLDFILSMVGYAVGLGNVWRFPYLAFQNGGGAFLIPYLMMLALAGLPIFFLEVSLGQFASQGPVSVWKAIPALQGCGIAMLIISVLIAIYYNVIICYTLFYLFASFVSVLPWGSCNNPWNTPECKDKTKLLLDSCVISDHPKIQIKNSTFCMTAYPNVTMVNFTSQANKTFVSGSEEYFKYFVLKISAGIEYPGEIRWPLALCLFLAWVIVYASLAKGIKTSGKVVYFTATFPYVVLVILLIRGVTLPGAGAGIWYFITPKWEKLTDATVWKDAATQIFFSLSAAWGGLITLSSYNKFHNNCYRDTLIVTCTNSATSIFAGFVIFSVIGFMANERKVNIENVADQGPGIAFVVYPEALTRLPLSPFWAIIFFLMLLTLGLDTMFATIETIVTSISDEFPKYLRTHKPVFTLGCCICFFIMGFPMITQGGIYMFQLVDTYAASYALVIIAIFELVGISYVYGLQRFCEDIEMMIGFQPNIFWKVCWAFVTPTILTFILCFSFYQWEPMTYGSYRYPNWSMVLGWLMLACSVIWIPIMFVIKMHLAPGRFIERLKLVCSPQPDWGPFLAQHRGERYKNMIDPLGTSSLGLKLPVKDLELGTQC
Assay: Inhibition of Glyt2
Details: not given

Compound	IC50
CC(F)CS(=O)(=O)N1CCC(CNC(=O)c2ccc(Cl)cc2Cl)(c2ccccn2)CC1 (configuration not stated)	> 30000 nM
CCCS(=O)(=O)N1CCC(CNC(=O)c2ccc(Cl)cc2Cl)(CC2CC2)CC1	> 30000 nM
CCS(=O)(=O)N1CCC(CNC(=O)c2ccc(Cl)cc2Cl)(c2ccccn2)CC1	> 30000 nM
CCCS(=O)(=O)N1CCC(CNC(=O)c2ccc(Cl)cc2Cl)(c2ccccn2)CC1	> 30000 nM
